The values below come from patent publication US12268690B2, “Treatments for mutations in acute myeloid leukemia” (OREGON HEALTH & SCIENCE UNIVERSITY, priority 2018, dated 2025).

In the experiment the test system is freshly isolated mononuclear cells from AML samples. Nature of the experiment: Ex vivo functional drug screen (MTS viability, AUC) on primary AML samples, compared by mutation or clinical group. It counts as cell-based, human.

Regarding `Cc1ccc(NC(=O)c2ccc(CN3CCN(C)CC3)cc2)cc1Nc1nc(-c2cccnc2)cs1` [Masitinib], the “drug sensitivity mutant vs wild type (average difference in AUC; top left quadrant of volcano plot)” value (FLT3_ITD:TET2) was “masitinb”; the “drug sensitivity mutant vs wild type (average difference in AUC; top left quadrant of volcano plot)” value (FLT3_ITD_IHD2) was “masitinib”; the “drug sensitivity mutant vs wild type (average difference in AUC; top left quadrant of volcano plot)” value (IDH2) was “Masitinib”; the “drug sensitivity mutant vs wild type (average difference in AUC; top left quadrant of volcano plot)” value (NPM1:SRSF2) is given as “Masitinb”; the “drug sensitivity mutant vs wild type (average difference in AUC; top left quadrant of volcano plot)” value (SMC1A) is reported as “Masitinib”.
As to `CN1CC[C@H](c2c(O)cc(O)c3c(=O)cc(-c4ccccc4Cl)oc23)[C@H](O)C1` [Flavopiridol], the “drug sensitivity mutant vs wild type (average difference in AUC; top left quadrant of volcano plot)” value (NRAS) was “(GSK1120212), or Flavopiridol”.
Regarding `CCCS(=O)(=O)Nc1ccc(F)c(C(=O)c2c[nH]c3ncc(Cl)cc23)c1F` [PLX-4720, N-(3-(5-chloro-1H-pyrrolo[2,3-b]pyridine-3-carbonyl)-2,4-difluorophenyl)propane-1-sulfonamide], the “drug sensitivity mutant vs wild type (average difference in AUC; top left quadrant of volcano plot)” value (CBFB.MYH11) was “PLX-4720”.
On to `CCOc1cc2ncc(C#N)c(Nc3ccc(F)c(Cl)c3)c2cc1NC(=O)/C=C/CN(C)C` [Pelitinib], for which the “drug sensitivity mutant vs wild type (average difference in AUC; top left quadrant of volcano plot)” value runs as follows: (FLT3_ITD) “pelitinib”; (NPM1) “Pelitinib”; (NPM1:FLT3_ITD) “pelitinib”.
As to `C[C@@H](Oc1cc(-c2cnn(C3CCNCC3)c2)cnc1N)c1c(Cl)ccc(F)c1Cl` [Crizotinib], the “drug sensitivity mutant vs wild type (average difference in AUC; top left quadrant of volcano plot)” value by setting is: (BCOR) “Crizotinib”; (FLT3_ITD) “crizotinib”; (FLT3_ITD:SRSF2) “crizotinib”; (IDH2) “Crizotinib”; (NPM1:CEBPA) “Crizotinib”; (NPM1:FLT3_ITD) “crizotinib”. The “drug sensitivity mutant vs wild type (average difference in AUC; top left quadrant of volcano plot)” value runs as follows: (SMC1A) “crizotinib”; (SRSF2:IDH2) “Crizotinib”. Also, the “drug sensitivity of mutant cases” value (BCOR mutation alone) was “did show sensitivity”.
With `COc1ccc(COc2ccc(Cc3cnc(N)nc3N)cc2OC)cc1` [GW-2580], the “drug sensitivity mutant vs wild type (average difference in AUC; top left quadrant of volcano plot)” value is, setting by setting: (IDH2) “GW-2580”; (NPM1:IDH2) “GW-2580”; (NPM1:SRSF2) “gw-2580”.
As for `CNC(=O)c1c(F)cccc1Nc1nc(Nc2cc3c(cc2OC)CCN3C(=O)CN(C)C)nc2[nH]ccc12` [GSK-1838705A], the “drug sensitivity mutant vs wild type (average difference in AUC; top left quadrant of volcano plot)” value runs as follows: (IDH2) “GSK-1838705A”; (NPM1:IDH2) “GSK-1838705A”; (NPM1:SRSF2) “GSK-183705A”; (SMC1A) “GSK-1838705A”; (SRSF2:IDH2) “GSK-1838705A”.
In the case of `CC(C)(C)c1ccc(S(=O)(=O)/C=C/C#N)cc1` [Bay 11-7085], the “drug sensitivity mutant vs wild type (average difference in AUC; top left quadrant of volcano plot)” value (SMC1A) is reported as “Bay 11-”.
Take `CS(=O)(=O)c1ccc(C(=O)Nc2ccc(Cl)c(-c3ccccn3)c2)c(Cl)c1` [Vismodegib]: the “drug sensitivity mutant vs wild type (average difference in AUC; top left quadrant of volcano plot)” value (WT1) was “Vismodegib”.
